According to patent publication US9428464B2, “Kynurenine-3-monooxygenase inhibitors, pharmaceutical compositions, and methods of use thereof” (CHDI Foundation, Inc., priority 2011, dated 2016):
“And” between values parts separate entries of the source, which are not always exact repeats. Equal entries are not always repeated.

What follows are compounds tested on KMO (assay: KMO activity assay: L-Kynurenine hydroxylation to 3-Hydroxy-Kynurenine, quantified by LC/MS). Settings: compound at 10 uM; footnote: some portion of activity of amides may be due to contribution of acid precursor.
Assay type: biochemical
Procedure: A generalized procedure for monitoring L-Kynurenine (KYN) hydroxylation to form product 3-Hydroxy-Kynurenine (3OH-KYN) by LC/MS is described below. Product is quantified by multiple reaction monitoring using MS.
A method of monitoring L-Kynurenine (KYN) hydroxylation to form product 3-Hydroxy-Kynurenine (3OH-KYN) by LC/MS is described below. Product is quantified by multiple reaction monitoring.
• Compound: Stock concentrations: 10 mM in 100% DMSO • Enzyme: KMO enzyme prepared at Evotec via mitochondria isolation from CHO-GST HIS KMO cells • Substrate: L-Kynurenine (Sigma: Cat #K3750) • [stock concentration: 10 mM in 100 mM potassium phosphate buffer, pH 7.4]
A method of monitoring L-Kynurenine (KYN) hydroxylation to form 3-Hydroxy-Kynurenine (3OH-KYN) by LC/MS is described. Product is quantified by multiple reaction monitoring (MRM method).
In the case of Cl.O=C(Nc1cccc(C2CNCCN2)c1)c1cc(-c2ccc(Cl)c(Cl)c2)ncn1 (centres unmarked) [6-(3,4-Dichloro-phenyl)-pyrimidine-4-carboxylic acid (3-piperazin-2-yl-phenyl)-amide hydrochloride salt], the “% Inhibition at 10 uM” value is reported as 96.58%.
For Cl.O=C(Nc1cccc(C2CCNCC2)c1)c1cc(-c2ccc(Cl)c(Cl)c2)ncn1 [6-(3,4-Dichloro-phenyl)-pyrimidine-4-carboxylic acid (3-piperidin-4-yl-phenyl)-amide hydrochloride salt], the “% Inhibition at 10 uM” value was 69.06%.
O=C(Nc1cc(C(F)(F)F)no1)c1cc(-c2ccc(Cl)c(Cl)c2)ncn1 [6-(3,4-Dichloro-phenyl)-pyrimidine-4-carboxylic acid (3-trifluoromethyl-isoxazol-5-yl)-amide] was tested, and the “% Inhibition at 10 uM” value was 101.875%.
With CN(C)C1(CNC(=O)c2cc(-c3ccc(Cl)c(Cl)c3)ncn2)CCOCC1.Cl [6-(3,4-Dichloro-phenyl)-pyrimidine-4-carboxylic acid (4-dimethylamino-tetrahydro-pyran-4-ylmethyl)-amide hydrochloride salt] the “% Inhibition at 10 uM” value was 96.81%.
In the case of O=C(NCC1(O)CCOCC1)c1cc(-c2ccc(Cl)c(Cl)c2)ncn1 [6-(3,4-Dichloro-phenyl)-pyrimidine-4-carboxylic acid (4-hydroxy-tetrahydro-pyran-4-ylmethyl)-amide], the “% Inhibition at 10 uM” value is reported as 74.49%.
In the case of Cl.O=C(Nc1ccc(N2CCOCC2)cc1)c1cc(-c2ccc(Cl)c(Cl)c2)ncn1 [6-(3,4-Dichloro-phenyl)-pyrimidine-4-carboxylic acid (4-morpholin-4-yl-phenyl)-amide hydrochloride salt], the “% Inhibition at 10 uM” value is reported as 76.95%.
O=C(Nc1ccc(N2CCOCC2)cc1)c1cc(-c2ccc(Cl)c(Cl)c2)ncn1 [6-(3,4-Dichloro-phenyl)-pyrimidine-4-carboxylic acid (4-morpholin-4-yl-phenyl)-amide] was tested, and the “% Inhibition at 10 uM” value was 101.19%.
For Cl.O=C(Nc1ccc(N2CCNCC2)cc1)c1cc(-c2ccc(Cl)c(Cl)c2)ncn1 [6-(3,4-Dichloro-phenyl)-pyrimidine-4-carboxylic acid (4-piperazin-1-yl-phenyl)-amide hydrochloride salt], the “% Inhibition at 10 uM” value was 93.13%.
With O=C(Nc1ccc(N2CCNCC2)cc1)c1cc(-c2ccc(Cl)c(Cl)c2)ncn1 [6-(3,4-Dichloro-phenyl)-pyrimidine-4-carboxylic acid (4-piperazin-1-yl-phenyl)-amide] the “% Inhibition at 10 uM” value was 43.46%.
For Cc1nnc(CNC(=O)c2cc(-c3ccc(Cl)c(Cl)c3)ncn2)o1 [6-(3,4-Dichloro-phenyl)-pyrimidine-4-carboxylic acid (5-methyl-[1,3,4]oxadiazol-2-ylmethyl)-amide], the “% Inhibition at 10 uM” value was 100.815%.
For O=C1CCC(NC(=O)c2cc(-c3ccc(Cl)c(Cl)c3)ncn2)N1 (centres unmarked) [6-(3,4-Dichloro-phenyl)-pyrimidine-4-carboxylic acid (5-oxo-pyrrolidin-2-yl)-amide], the “% Inhibition at 10 uM” value was 93.08%.
For O=C1CC(NC(=O)c2cc(-c3ccc(Cl)c(Cl)c3)ncn2)CN1 (centres unmarked) [6-(3,4-Dichloro-phenyl)-pyrimidine-4-carboxylic acid (5-oxo-pyrrolidin-3-yl)-amide], the “% Inhibition at 10 uM” value was 83.73%.
CC(C)(C)c1nnc(NC(=O)c2cc(-c3ccc(Cl)c(Cl)c3)ncn2)o1 [6-(3,4-Dichloro-phenyl)-pyrimidine-4-carboxylic acid (5-tert-butyl-[1,3,4]oxadiazol-2-yl)-amide] was tested, and the “% Inhibition at 10 uM” value was 101.4%.
For O=C(Nc1nnc(C(F)(F)F)o1)c1cc(-c2ccc(Cl)c(Cl)c2)ncn1 [6-(3,4-Dichloro-phenyl)-pyrimidine-4-carboxylic acid (5-trifluoromethyl-[1,3,4]oxadiazol-2-yl)-amide], the “% Inhibition at 10 uM” value was 102.78%.
With Cc1ccc(NC(=O)c2cc(-c3ccc(Cl)c(Cl)c3)ncn2)nn1 [6-(3,4-Dichloro-phenyl)-pyrimidine-4-carboxylic acid (6-methyl-pyridazin-3-yl)-amide] the “% Inhibition at 10 uM” value was 77.125%.
In the case of Cl.O=C(Nc1ccc(N2CCNCC2)nc1)c1cc(-c2ccc(Cl)c(Cl)c2)ncn1 [6-(3,4-Dichloro-phenyl)-pyrimidine-4-carboxylic acid (6-piperazin-1-yl-pyridin-3-yl)-amide hydrochloride salt], the “% Inhibition at 10 uM” value is reported as 87.82%.
With O=C(N[C@H]1c2ccccc2C[C@H]1O)c1cc(-c2ccc(Cl)c(Cl)c2)ncn1 [6-(3,4-Dichloro-phenyl)-pyrimidine-4-carboxylic acid ((1S,2R)-2-hydroxy-indan-1-yl)-amide] the “% Inhibition at 10 uM” value was 97.78%.
C[C@@H](NC(=O)c1cc(-c2ccc(Cl)c(Cl)c2)ncn1)c1ccccc1 [6-(3,4-Dichloro-phenyl)-pyrimidine-4-carboxylic acid ((R)-1-phenyl-ethyl)-amide] was tested, and the “% Inhibition at 10 uM” value was 101.25%.
In the case of C[C@@H](NC(=O)c1cc(-c2ccc(Cl)c(Cl)c2)ncn1)c1cccnc1 [6-(3,4-Dichloro-phenyl)-pyrimidine-4-carboxylic acid ((R)-1-pyridin-3-yl-ethyl)-amide], the “% Inhibition at 10 uM” value is reported as 90.86%.
For C[C@H](CO)NC(=O)c1cc(-c2ccc(Cl)c(Cl)c2)ncn1 [6-(3,4-Dichloro-phenyl)-pyrimidine-4-carboxylic acid ((R)-2-hydroxy-1-methyl-ethyl)-amide], the “% Inhibition at 10 uM” value was 97.775%.
In the case of CC(NC(=O)c1cc(-c2ccc(Cl)c(Cl)c2)ncn1)[C@@H](C)O (stereo partly drawn) [6-(3,4-Dichloro-phenyl)-pyrimidine-4-carboxylic acid ((R)-2-hydroxy-1-methyl-propyl)-amide], the “% Inhibition at 10 uM” value is reported as 66.43%.
C[C@@H](O)CNC(=O)c1cc(-c2ccc(Cl)c(Cl)c2)ncn1 [6-(3,4-Dichloro-phenyl)-pyrimidine-4-carboxylic acid ((R)-2-hydroxy-propyl)-amide] was tested, and the “% Inhibition at 10 uM” value was 100.71%.
With C[C@H](NC(=O)c1cc(-c2ccc(Cl)c(Cl)c2)ncn1)C(N)=O [6-(3,4-Dichloro-phenyl)-pyrimidine-4-carboxylic acid ((S)-1-carbamoyl-ethyl)-amide] the “% Inhibition at 10 uM” value was 47.73%.
CC[C@H](NC(=O)c1cc(-c2ccc(Cl)c(Cl)c2)ncn1)C(N)=O [6-(3,4-Dichloro-phenyl)-pyrimidine-4-carboxylic acid ((S)-1-carbamoyl-propyl)-amide] was tested, and the “% Inhibition at 10 uM” value was 87.6%.
C[C@H](NC(=O)c1cc(-c2ccc(Cl)c(Cl)c2)ncn1)c1ccccc1 [6-(3,4-Dichloro-phenyl)-pyrimidine-4-carboxylic acid ((S)-1-phenyl-ethyl)-amide] was tested, and the “% Inhibition at 10 uM” value was 102.29%.
With C[C@H](NC(=O)c1cc(-c2ccc(Cl)c(Cl)c2)ncn1)c1cccnc1 [6-(3,4-Dichloro-phenyl)-pyrimidine-4-carboxylic acid ((S)-1-pyridin-3-yl-ethyl)-amide] the “% Inhibition at 10 uM” value was 85.1%.
With C[C@H](NC(=O)c1cc(-c2ccc(Cl)c(Cl)c2)ncn1)c1ccncc1 [6-(3,4-Dichloro-phenyl)-pyrimidine-4-carboxylic acid ((S)-1-pyridin-4-yl-ethyl)-amide] the “% Inhibition at 10 uM” value was 91.79%.
For C[C@@H](CO)NC(=O)c1cc(-c2ccc(Cl)c(Cl)c2)ncn1 [6-(3,4-Dichloro-phenyl)-pyrimidine-4-carboxylic acid ((S)-2-hydroxy-1-methyl-ethyl)-amide], the “% Inhibition at 10 uM” value was 99.59%.
With C[C@H](O)CNC(=O)c1cc(-c2ccc(Cl)c(Cl)c2)ncn1 [6-(3,4-Dichloro-phenyl)-pyrimidine-4-carboxylic acid ((S)-2-hydroxy-propyl)-amide] the “% Inhibition at 10 uM” value was 86.83%.
With Cl.O=C(N[C@@H]1CCNC1)c1cc(-c2ccc(Cl)c(Cl)c2)ncn1 [6-(3,4-Dichloro-phenyl)-pyrimidine-4-carboxylic acid (R)-pyrrolidin-3-ylamide hydrochloride salt] the “% Inhibition at 10 uM” value was 95.94%.
Cl.O=C(N[C@H]1CCNC1)c1cc(-c2ccc(Cl)c(Cl)c2)ncn1 [6-(3,4-Dichloro-phenyl)-pyrimidine-4-carboxylic acid (S)-pyrrolidin-3-ylamide hydrochloride salt] was tested, and the “% Inhibition at 10 uM” value was 89.355%.
For O=C(N[C@@H]1CCOC1)c1cc(-c2ccc(Cl)c(Cl)c2)ncn1 [6-(3,4-Dichloro-phenyl)-pyrimidine-4-carboxylic acid (tetrahydro-furan-3R-yl)-amide], the “% Inhibition at 10 uM” value was 41.5%.
In the case of O=C(N[C@H]1CCOC1)c1cc(-c2ccc(Cl)c(Cl)c2)ncn1 [6-(3,4-Dichloro-phenyl)-pyrimidine-4-carboxylic acid (tetrahydro-furan-3S-yl)-amide], the “% Inhibition at 10 uM” value is reported as 53.41%.
With O=C(NC1CCOCC1)c1cc(-c2ccc(Cl)c(Cl)c2)ncn1 [6-(3,4-Dichloro-phenyl)-pyrimidine-4-carboxylic acid (tetrahydro-pyran-4-yl)-amide] the “% Inhibition at 10 uM” value was 55.35%.
O=C(NCC1CCOCC1)c1cc(-c2ccc(Cl)c(Cl)c2)ncn1 [6-(3,4-Dichloro-phenyl)-pyrimidine-4-carboxylic acid (tetrahydro-pyran-4-ylmethyl)-amide] was tested, and the “% Inhibition at 10 uM” value was 101.39%.
For O=C(Nc1nnco1)c1cc(-c2ccc(Cl)c(Cl)c2)ncn1 [6-(3,4-Dichloro-phenyl)-pyrimidine-4-carboxylic acid [1,3,4]oxadiazol-2-ylamide], the “% Inhibition at 10 uM” value was 101.93%.
With CC(NC(=O)c1cc(-c2ccc(Cl)c(Cl)c2)ncn1)c1ccc2c(c1)NC(=O)CO2 (centres unmarked) [6-(3,4-Dichloro-phenyl)-pyrimidine-4-carboxylic acid [1-(3-oxo-3,4-dihydro-2H-benzo[1,4]oxazin-6-yl)-ethyl]-amide] the “% Inhibition at 10 uM” value was 99.66%.

Same assay, conditions: compound at 10 uM; footnote: some portion of activity of amides may be due to contribution of acid precursor; 10 µM
With CC(=O)N1CC[C@H](NC(=O)c2cc(-c3ccc(Cl)c(Cl)c3)ncn2)C1 [6-(3,4-Dichloro-phenyl)-pyrimidine-4-carboxylic acid ((S)-1-acetyl-pyrrolidin-3-yl)-amide] the “% Inhibition at 10 uM” value was 84.87% and 98.54%.
